The subject of test [1] is bovine aortic endothelial cells. Briefly: xCELLigence cellular impedance (cell index) in bovine aortic endothelial cells. The format is cell-based. Particulars: 62.5 μM, 125 μM or 250 μM, measured for 3 hours, FIG. 13. An excerpt:
The xCELLigence SP system (Roche) was used to measure changes in cellular impedance (cell index) following the treatment of bovine aortic endothelial cells (European Collection of Cell Cultures) with test compound. In this in vitro cell based experimental system a negative impedance profile correlates with blood pressure reduction in rats—a decrease in impedance is associated with vasodilatation and an increase in impedance is associated with vasoconstriction (Stallaert W, Dorn J F, van der Westhuizen E, Audet M & Bouvier M. Impedance responses reveal β-adrenergic signaling […] and allow classification of ligands with distinct signalling profiles PLoS ONE 2012; 7(1):e29420, doi:10.1371/journal.pone.0029420).
Briefly, 50 μl of cell culture medium (DMEM low glucose supplemented with 15% fetal bovine serum at 37° C.) was added to each well of an E-Plate 96 (Roche), and the background impedance in each well was measured. 50 μl of bovine aortic endothelial cell suspension (10,000 cells/well) was then added to the appropriate wells of the E-Plate 96. Cell index was monitored for each well of the E-Plate 96 in RTCA SP Station within the cell culture incubator. After overnight incubation for 16-20 hours at 5% CO2 and 95% humidity, 100 μl of test compound solution (test compounds were prepared in DMSO and diluted with cell culture medium to a concentration of 62.5 μM, 125 μM or 250 μM of test compound with a final DMSO concentration of 0.25%) was added to the appropriate wells of the E-Plate 96 and cell index values were measured immediately following compound treatment every 20 seconds for 3 hours. Cell index value is baseline-corrected by subtracting the cell index of vehicle-treated cells and normalized by dividing by the cell index at the time point immediately before compound addition. Baseline normalized cell index as a function of time is plotted using Roche RTCA software.

Test [2] concerns SHR. Kind of test: Masson's tri-chrome stained sections of portal tracts (liver tissue architecture). Particulars: treated rats versus control, FIG. 18. Format: in vivo, rat. The text has this: (§1) Fourteen week old SHR on a high fat diet (Glen Forrest Stockfeeders) were randomly assigned to test compound drinking solution (500 pmol/kg/min test compound in 10% ethanol in deionised distilled water) or control drinking solution (10% ethanol in deionised distilled water). After 4 weeks, rats were anaesthetised and blood samples were taken for analysis of plasma aminotransferase (AST) levels and livers were harvested. To quantitate tissue fibrosis and/or fat content, tissue slices≤3 mm thick were fixed in 10% buffered formalin for 24 hours, processed and embedded in paraffin. Three micron transverse sections were stained using Masson's trichrome stain. A minimum of 20 random fields at magnification×20 from transverse sections (5 at each of 2 levels) were digitized and the degree of fibrosis determined as a percent of field area of each digitized image using Image-Pro Plus V.7 (Media Cybernetics, Bethesda, Md., USA) then averaged to determine the level of fibrosis and/or fat content for each rat.

For test [3], the system named is SHR. Kind of test: Fat accumulation in the liver in SHR on high fat diet. The format is in vivo, rat. Particulars: 500 pmol/kg/min for 4 weeks, compared to 18 week controls, FIG. 20, p<0.05.
From the text: as §1

The subject of test [4] is SHR. Kind of test: Hepatic fibrosis in SHR on high fat diet. The format is in vivo, rat. Particulars: 10% ethanol drinking solution, 500 pmol/kg/min for 6 weeks, compared to controls, FIG. 17. The procedure: as §1, with “After 4 weeks, rats were anaesthetised and blood samples were taken for analysis of plasma aminotransferase (AST) levels and livers were harvested.” left out

The test system of test [5] is Human (HPCT-wt-05) renal proximal tubule cells. Briefly: Cisplatin induced cell death, human renal proximal tubule cells (WST-8/CCK-8). Format: cell-based. Particulars: human renal proximal tubular cells; cisplatin 5 μg/ml; 32 μM or 63 μM of compound; 24 hours; FIG. 14. How it is done: (§2) Human (HPCT-wt-05) and rat (NRK-52E) renal proximal tubule cells grown in (Keratinocyte Medium II+Keratinocyte Growth Supplement+5 ng/ml human recombinant epidermal growth factor+5% FBS+2 mM glutamine or DMEM+10% FBS+1% NEAA+2 mM glutamine respectively) were placed in 96 well plates at 10,000 cells/well and incubated at 37° C. with 5% CO2 overnight. Test compounds at concentrations of 32 μM or 63 μM were incubated with human or rat renal proximal tubule cells for 2 hours at 37° C. and 5% CO2. Cis-diamminedichloroplatinum[…] (cisplatin) was then added at a concentration of 5 μg/ml for human cells and 12.5 μg/ml for rat cells. Each cell population was then incubated for 24 hours at 37° C. with 5% CO2. Test compound A32 was maintained at its original concentrations. To assay the cytotoxic effects of cisplatin on the human and rat renal proximal tubule cells a highly water-soluble tetrazolium salt, WST-8, which is reduced by dehydrogenases in cells to produce formazan, a water-soluble, yellow-coloured indicator dye was used following the manufacturer's instructions (specifically the Cell Count Kit-8 (CCK-8) assay from Sigma). Plate absorbance of the WST-8 (CCK-8) reagent was then measured at 450 nm using a Thermo Scientific Multiskan EX plate reader.
Background: Tetrazolium assays rely on reduction of a dye to a coloured formazan, in cell work by metabolically active cells.

Test [6] has as its system rat (NRK-52E) renal proximal tubule cells. Briefly: Cisplatin induced cell death, rat renal proximal tubule cells (WST-8/CCK-8). Format: cell-based. Conditions: rat renal proximal tubular cells; cisplatin 12.5 μg/ml; 32 μM or 63 μM of compound; 24 hours; FIG. 14. The procedure:
as §2

Test [7] relates to SHR. Briefly: Interstitial fibrosis in the kidney in SHR on 2.2% salt diet. Conditions: 5% ethanol drinking solution, 500 pmol/kg/min for 4 weeks, compared to 18 week controls, FIG. 15. Format: in vivo, rat. An excerpt: (§3) Fourteen week old SHR on a 2.2% salt diet (Glen Forrest Stockfeeders) were randomly assigned to zero time control, test compound treatment (500 pmol/kg/min) in the drinking solution or control drinking solution (5% ethanol in deionised distilled water (n=5 each group). The rats assigned to zero time control group (14 weeks old rats) were anaesthetised and had their kidneys and heart harvested while rats assigned to control and test compound treatment were weighed twice weekly and had their drinking solution intake monitored to allow adjustment of the test compound concentration in the drinking solution to maintain a constant dose over the 4-week study period (18 weeks old rats). At the completion of the study period, rats were anaesthetised and had their kidneys and heart harvested. To quantitate tissue fibrosis and/or fat content, tissue slices≤3 mm thick were fixed in 10% buffered formalin for 24 hours, processed and embedded in paraffin. Three micron transverse sections were stained using Masson's trichrome stain. A minimum of 20 random fields at magnification×20 from transverse sections (5 at each of 2 levels) were digitized and the degree of fibrosis determined as a percent of field area of each digitized image using Image-Pro Plus V.7 (Media Cybernetics, Bethesda, Md., USA) then averaged to determine the level of fibrosis and/or fat content for each rat.

The subject of test [8] is SHR. Briefly: Myocardial fibrosis in SHR on 2.2% salt diet. The format is in vivo, rat. Conditions: 5% ethanol drinking solution, 500 pmol/kg/min for 4 weeks, compared to 14 and 18 week controls, FIG. 16.
From the text: as §3

In test [9] the test system is SHR. Briefly: Masson's tri-chrome stained sections of heart tissue (tissue architecture). The format is in vivo, rat. Particulars: treated rats versus control, FIG. 19.
From the text: as §3

Test [10] concerns SHR. Briefly: Plasma aminotransferase (AST) levels in SHR on high fat diet. The format is in vivo, rat. Conditions: 10% ethanol drinking solution, compared to controls, FIG. 21, p<0.025. The procedure:
Fourteen week old SHR on a high fat diet (Glen Forrest Stockfeeders) were randomly assigned to test compound drinking solution (500 pmol/kg/min test compound in 10% ethanol in deionised distilled water) or control drinking solution (10% ethanol in deionised distilled water). After 4 weeks, rats were anaesthetised and blood samples were taken for analysis of plasma aminotransferase (AST) levels and livers were harvested. Plasma AST levels were measured using a RefloVET Plus (Roche) machine using consumable strips with magnetic assay identifiers recognized by the machine. A calibration standard was used in the machine prior to each use and the device was operated according to the manufacturer's instructions. Results are presented as international units per liter (IU/L).

On to `O=C(O)Cc1cc(-c2ccccc2)ccc1-c1cccc(O)c1` [A56k, (3-Hydroxy-1,1′:4′,1″-terphenyl-2′-yl)acetic acid], for which, in test [1], the “Cell impedance response (baseline normalized cell index)” value is reported as “Negative impedance responses”.

Regarding `NOCCc1cc(-c2ccccc2)ccc1-c1cccc(O)c1` [A56, 2′-[2-(Aminooxy)ethyl]-1,1′:4′,1″-terphenyl-3-ol], in test [1], the “Cell impedance response (baseline normalized cell index)” value is on record as “Negative impedance responses”. The “Tissue architecture in portal tract sections” value with SHR [2] is “normal tissue architecture has been restored”. The “Fat in the liver” value with SHR [3] is reported as “reduced”.

As to `OCc1cc(-c2ccccc2)ccc1-c1cccc(O)c1` [A81], the “Cell impedance response (baseline normalized cell index)” value in test [1] is recorded as “Negative impedance responses”.

As for `O=C1c2ccccc2C(=O)N1OCCc1cc(-c2ccccc2)ccc1-c1cccc(O)c1` [A56g, 2-[2-(3-Hydroxy-1,1′:4′,1″-terphenyl-2′-yl)ethoxy]-1H-isoindole-1,3(2H)-dione], in test [1], the “Cell impedance response (baseline normalized cell index)” value is given as “Negative impedance responses”.

On to `O=C1NCC/C1=C\c1cc(-c2ccccc2)ccc1-c1cccc(O)c1` [A27], for which the “Cell impedance response (baseline normalized cell index)” value in test [1] is on record as “Negative impedance responses”. In addition, the Hepatic fibrosis entry in the test on SHR [4] is listed as “decreased”. In the test on SHR [2], the “Tissue architecture in portal tract sections” value is “normal tissue architecture has been restored”. Further, the “Fat in the liver” value with SHR [3] is given as “reduced”.

In the case of `O=C1NCCC1Cc1cc(-c2ccccc2)ccc1-c1cccc(O)c1` (stereo not drawn) [A26], the “Cell impedance response (baseline normalized cell index)” value in test [1] is “Negative impedance responses”.

As for `O=C1NC(=O)C(Cc2cc(-c3ccccc3)ccc2-c2cccc(O)c2)N1` (stereo not drawn) [A32, 5-((3-Hydroxy-[1,1′:4′,1″-terphenyl]-2′-yl)methyl)imidazolidine-2,4-dione], in test [1], the “Cell impedance response (baseline normalized cell index)” value is recorded as “Negative impedance responses”. For the same compound, the “Cisplatin induced cell death” value in test [5] and in test [6] was “decreased” throughout. The “Fibrosis in the kidney” value in the test with SHR [7] is on record as “decreased”. The Myocardial fibrosis result in the test with SHR [8] was “decreased”. In addition, the Hepatic fibrosis result with SHR [4] is on record as “decreased”. The “Tissue architecture in portal tract sections” value in the test with SHR [2] is on record as “normal tissue architecture has been restored”. Moreover, in the test with SHR [9], the “Fibrous tissue and tissue architecture in heart sections” value is “minimal fibrous tissue is present and normal tissue architecture has been restored”. In the test with SHR [3], the “Fat in the liver” value is on record as “reduced”. The “Plasma AST levels” value in the test on SHR [10] was “decreased”.

Consider `NC(CCc1cc(-c2ccccc2)ccc1-c1cccc(O)c1)C(F)(F)F` (stereo not drawn) [A6, 2′-(3-Amino-4,4,4-trifluorobutyl)-1,1′:4′,1″-terphenyl-3-ol], for which the “Cell impedance response (baseline normalized cell index)” value in test [1] was “Negative impedance responses”. Also, in the test on SHR [4], the Hepatic fibrosis entry is “decreased”. In the test with SHR [2], the “Tissue architecture in portal tract sections” value is “normal tissue architecture has been restored”.

On to `Nc1nocc1Cc1cc(-c2ccccc2)ccc1-c1cccc(O)c1` [A35], for which the “Cell impedance response (baseline normalized cell index)” value in test [1] was “Negative impedance responses”.

On to `OCCc1cc(-c2ccccc2)ccc1-c1cccc(O)c1` [A56f, 2′-(2-Hydroxyethyl)-1,1′:4′,1″-terphenyl-3-ol], for which the “Cell impedance response (baseline normalized cell index)” value in [1] is on record as “Negative impedance responses”. The Hepatic fibrosis result with SHR [4] is given as “decreased”. Besides, the “Tissue architecture in portal tract sections” value in the test on SHR [2] is “normal tissue architecture has been restored”. Moreover, the “Plasma AST levels” value in the test on SHR [10] is “decreased”.

For `O=C1CC(Cc2cc(-c3ccccc3)ccc2-c2cccc(O)c2)C(=O)N1` (stereo not drawn) [A30, 3-[(3-Hydroxy-1,1′:4′,1″-terphenyl-2′-yl)methyl]pyrrolidine-2,5-dione], the “Cell impedance response (baseline normalized cell index)” value in [1] is “Negative impedance responses”.

The values above are taken from patent publication US10035775B2, “Compositions for the treatment of fibrosis and fibrosis-related conditions” (VECTUS BIOSYSTEMS LIMITED, priority 2015, dated 2018).
